{"source": "patent US7709700B2", "about": "“Method for improving plant transformation efficiency by adding copper ion” (Japan Tobacco Inc., priority 2003, dated 2010)", "key": {"[1]": {"system": "shoots having emerged from ripe seeds of barley", "settings": "cited from earlier work"}, "anthers of wheat": {"system": "anthers of wheat", "settings": "medium containing 10 mg/l copper sulfate and 2.5-5 mg/l silver nitrate; cited from earlier work"}, "[2]": {"system": "immature embryos of maize (cultivar: A188)", "settings": "3 days"}, "[3]": {"system": "regenerated plants of rice (cultivar: Yukihikari)", "settings": "10 μM in N6R regeneration medium, 3 weeks; FIG. 9", "experimental": "Immature embryos of rice (cultivar: Yukihikari) were inoculated with Agrobacterium tumefaciens LBA4404 (pSB134) and cultured on nN6CC medium (N6 salts, N6 vitamins, 0.5 g/l casamino acids, 0.5 g/l L-proline, 1 mg/l 2,4-D, 0.5 mg/l NAA, 0.1 mg/l 6BA, 20 g/l sucrose, 55 g/l sorbitol, 250 mg/l cefotaxime, 250 mg/l carbenicillin, 5 g/l Gelrite, pH 5.8) containing hygromycin to give a transformed callus. The transformed callus was cut into a size of about 2 mm and seeded on N6R regeneration medium (N6 salts with major salts reduced to ½, N6 vitamins, AA amino acids, 1 g/l casamino acids, 0.5 mg/l kinetin, 20 g/l sucrose, 30 g/l sorbitol, 4 g/l Gelrite, pH 5.8) containing 10 μM CuSO4.5H2O or copper gluconate, and hygromycin. After incubation at 25° C. under illumination for 3 weeks, the leaf length of regenerated plants was measured."}, "[4]": {"system": "immature embryos of maize (cultivar: A188)", "settings": "co-culture 1 week on media containing copper sulfate, then 1 week on PPT selective medium; FIG. 3", "experimental": "(§1) These calli were cultured on the same medium containing 10 mg/l PPT for 6 weeks under the same conditions. Grown PPT-resistant calli were seeded on LSZ regeneration medium (LSD 1.5 medium deprived of 2,4-D and supplemented with 5 mg/l zeatin) and incubated at 25° C. under illumination for 2-3 weeks. Leaf segments of regenerated plants were excised and assessed for the expression of the GUS gene by X-gluc.\nAfter co-culture for 1 week, the calli grown from immature embryos (cultivar: A188) cultured on a selective medium containing PPT for 1 week were evaluated on a scale of four ratings from 0 (no callus formed) to 3 (the entire scutellum formed callus). […] Further selection on a medium containing PPT and incubation of the resulting calli in a regeneration medium containing PPT gave PPT-resistant plants. Leaf segments of these plants were excised and assessed for the expression of the GUS gene."}, "[5]": {"system": "immature embryos of rice (cultivar: IR64)", "settings": "5 μM copper sulfate in co-culture medium, 1 week; FIG. 4", "experimental": "Into an Eppendorf tube containing aseptically collected immature embryos (cultivar: IR64) was added 1 ml of the Agrobacterium suspension and the tube was agitated for 30 seconds in a vortex mixer and then allowed to stand at room temperature for 5 minutes."}, "[6]": {"system": "calli obtained by culturing immature embryos of rice", "settings": "media containing copper sulfate; cited from earlier work"}, "[7]": {"system": "regenerated plants of maize (cultivar: A188)", "settings": "10 μM in LSZ regeneration medium, 3 weeks; FIG. 8", "experimental": "The transformed callus was cut into a size of about 2 mm and plated on LSZ regeneration medium containing 10 μM CuSO4.5H2O or copper gluconate, and PPT. After incubation at 25° C. under illumination for 3 weeks, the leaf length of regenerated plants was measured."}, "[8]": {"system": "immature embryos of maize (cultivar: A188)", "text": "Transformation efficiency can be calculated by e.g., counting the number of regenerated plants expressing the GUS gene as transformants among those obtained from inoculated immature embryos and dividing the total number by the number of inoculated immature embryos. Alternatively, it can also be calculated by counting the number of regenerated plants showing resistance against a selective pressure as transformants and dividing the total number by the number of inoculated immature embryos.\nas §1\nAfter co-culture for 1 week, the calli grown from immature embryos (cultivar: A188) cultured on a selective medium containing PPT for 1 week were evaluated on a scale of four ratings from 0 (no callus formed) to 3 (the entire scutellum formed callus)."}, "[9]": {"system": "calli obtained by culturing immature embryos of barley", "settings": "media containing copper sulfate; cited from earlier work"}, "[10]": {"system": "immature embryos of maize (cultivar: H99)"}, "[11]": {"system": "immature embryos of rice (cultivar: Yukihikari)", "settings": "0-50 μM in inoculum liquid media; co-culture one week; three experiments; FIG. 7", "experimental": "An Agrobacterium tumefaciens super-binary vector designated LBA4404 (pSB134) cultured on AB medium containing 50 mg/l hygromycin and 50 mg/l spectinomycin for 3 to 4 days was scraped with a platinum loop and suspended at a concentration of about 10^9 cfu/ml in 1 ml of AA1 liquid medium containing 100 μM acetosyringone and 0-50 μM CuSO4.5H2O or copper gluconate. Into an Eppendorf tube containing aseptically collected immature embryos (cultivar: Yukihikari) was added 1 ml of the Agrobacterium suspension and the tube was agitated for 30 seconds in a vortex mixer and then allowed to stand at room temperature for 5 minutes. The immature embryos were seeded on nN6-As medium and incubated in darkness at 25° C. for one week.\nThe weight of co-cultured immature embryos was measured."}, "[12]": {"system": "immature embryos of maize (cultivar: H99)", "settings": "media containing 1-10 μM copper sulfate (1-100 μM tested); but slightly; cited from earlier work"}, "[13]": {"system": "immature embryos of maize (cultivar: A188)", "experiment": "Callus formation of immature embryos after 7 days on co-culture media", "assay_type": "cell-based", "settings": "1 week, FIG. 6"}, "[14]": {"settings": "1 μM CuSO4 in co-culture medium, 13 inoculated immature embryos"}, "[15]": {"settings": "5 μM CuSO4 in co-culture medium, 13 inoculated immature embryos"}, "[16]": {"settings": "10 μM CuSO4 in co-culture medium, 14 inoculated immature embryos"}}, "note": "Read-outs that look alike come from different tables or passages of the source."}
{"compound": "OC[C@H]1O[C@H](O[C@H]2[C@H](O)[C@@H](O)C(O)O[C@@H]2CO)[C@H](O)[C@@H](O)[C@@H]1O", "note": "(mixture of isomers) [maltose, reference compound]", "values": [{"measurement": "brown tissue when shoot meristematic cultures are induced", "setting": "[1]", "result": "effective for decreasing brown tissue"}]}
{"compound": "O=S(=O)([O-])[O-].[Cu+2]", "note": "[copper sulfate]", "values": [{"measurement": "embryoid formation", "setting": "anthers of wheat", "result": "increases"}, {"measurement": "area of the scutellum showing transient expression of the GUS gene vs control medium", "setting": "[2]; 1, 5 and 10 μM copper sulfate in co-culture media, with or without heat/centrifugation pretreatment, FIG. 1", "result": "wider area"}, {"measurement": "leaf length of regenerated plants vs control regeneration medium", "setting": "[3]", "result": "significantly longer"}, {"measurement": "shoot growth when shoot meristematic cultures are induced", "setting": "[1]", "result": "effective for promoting shoot growth"}, {"measurement": "induction ratio of shoot meristematic cultures (SMCs)", "setting": "[1]; medium containing 5 μM copper sulfate and 30 g/l maltose", "result": "increases"}, {"measurement": "PPT-resistant callus formation vs control medium", "setting": "[4]", "result": "higher callus formation"}, {"measurement": "area of the scutellum showing transient expression of the GUS gene vs control medium", "setting": "[5]", "result": "wider area"}, {"measurement": "regeneration ratio or number of regenerated plants per callus", "setting": "[6]", "result": "increases"}, {"measurement": "leaf length of regenerated plants vs control regeneration medium", "setting": "[7]", "result": "significantly longer"}, {"measurement": "Transformation efficiency (B/A, %)", "setting": "[8]; 1 μM CuSO4 in co-culture medium", "result": 15.4, "unit": "%"}, {"measurement": "Number of GUS-positive plants (B)", "setting": "[8]; [14]", "result": 2}, {"measurement": "Number of regenerated plants", "setting": "[8]; [14]", "result": 2}, {"measurement": "Transformation efficiency (B/A, %)", "setting": "[8]; 5 μM CuSO4 in co-culture medium", "result": 46.2, "unit": "%"}, {"measurement": "Number of GUS-positive plants (B)", "setting": "[8]; [15]", "result": 6}, {"measurement": "Number of regenerated plants", "setting": "[8]; [15]", "result": 6}, {"measurement": "Transformation efficiency (B/A, %)", "setting": "[8]; 10 μM CuSO4 in co-culture medium", "result": 35.7, "unit": "%"}, {"measurement": "Number of GUS-positive plants (B)", "setting": "[8]; [16]", "result": 5}, {"measurement": "Number of regenerated plants", "setting": "[8]; [16]", "result": 6}, {"measurement": "regeneration ratio or number of regenerated plants per callus", "setting": "[9]", "result": "increases"}, {"measurement": "average callus diameter greater than that on control co-culture medium", "setting": "[10]", "result": "≥ 2", "unit": "mm"}, {"measurement": "growth (weight) of co-cultured immature embryos vs control medium", "setting": "[11]", "result": "more active growth"}, {"measurement": "callus formation from immature embryos", "setting": "[12]", "result": "improved"}]}
{"compound": "O=[N+]([O-])[O-].[Ag+]", "note": "[silver nitrate, reference compound]", "values": [{"measurement": "callus growth vs control medium", "setting": "[10]; 5 μM silver nitrate in co-culture medium, 3 days, then about 4 weeks without selection, FIG. 2", "result": "nearly comparable"}]}
{"compound": "copper gluconate", "values": [{"measurement": "area of the scutellum showing transient expression of the GUS gene vs control medium", "setting": "[2]; 1, 5 and 10 μFM copper gluconate in co-culture media, heat/centrifugation pretreatment, FIG. 5", "result": "wider area"}, {"measurement": "leaf length of regenerated plants vs control regeneration medium", "setting": "[3]", "result": "significantly longer"}, {"measurement": "callus formation vs medium lacking copper gluconate", "setting": "[13]; 1, 5 and 10 μM copper gluconate in co-culture media", "result": "higher callus formation"}, {"measurement": "callus formation vs control", "setting": "[13]; 5 and 10 μM copper gluconate in co-culture media", "result": "significantly higher callus formation"}, {"measurement": "leaf length of regenerated plants vs control regeneration medium", "setting": "[7]", "result": "significantly longer"}, {"measurement": "growth (weight) of co-cultured immature embryos vs control medium", "setting": "[11]", "result": "more active growth"}]}
